One assay deals with human MMP13 (Homo sapiens (Human), UniProt P45452). Particulars: read-out: hMMP-13 potency IC50.
A further assay has as its target human TACE (Homo sapiens (Human), UniProt P78536). The following applies: read-out: TACE potency IC50.
Another assay deals with rnADAMTS-5 (1-564-6H) (Rattus norvegicus, UniProt Q6TY19). Particulars: read-out: Rat ADAMTS-5 potency IC50.
The target in the next assay is human ADAMTS-5 (Homo sapiens (Human), UniProt Q9UNA0). The following applies: read-out: hADAMTS-5 potency IC50.

In general, IC50 refers to the midpoint of a concentration-inhibition curve.

human TACE, sequence (P78536 whole entry, looked up, change not shown): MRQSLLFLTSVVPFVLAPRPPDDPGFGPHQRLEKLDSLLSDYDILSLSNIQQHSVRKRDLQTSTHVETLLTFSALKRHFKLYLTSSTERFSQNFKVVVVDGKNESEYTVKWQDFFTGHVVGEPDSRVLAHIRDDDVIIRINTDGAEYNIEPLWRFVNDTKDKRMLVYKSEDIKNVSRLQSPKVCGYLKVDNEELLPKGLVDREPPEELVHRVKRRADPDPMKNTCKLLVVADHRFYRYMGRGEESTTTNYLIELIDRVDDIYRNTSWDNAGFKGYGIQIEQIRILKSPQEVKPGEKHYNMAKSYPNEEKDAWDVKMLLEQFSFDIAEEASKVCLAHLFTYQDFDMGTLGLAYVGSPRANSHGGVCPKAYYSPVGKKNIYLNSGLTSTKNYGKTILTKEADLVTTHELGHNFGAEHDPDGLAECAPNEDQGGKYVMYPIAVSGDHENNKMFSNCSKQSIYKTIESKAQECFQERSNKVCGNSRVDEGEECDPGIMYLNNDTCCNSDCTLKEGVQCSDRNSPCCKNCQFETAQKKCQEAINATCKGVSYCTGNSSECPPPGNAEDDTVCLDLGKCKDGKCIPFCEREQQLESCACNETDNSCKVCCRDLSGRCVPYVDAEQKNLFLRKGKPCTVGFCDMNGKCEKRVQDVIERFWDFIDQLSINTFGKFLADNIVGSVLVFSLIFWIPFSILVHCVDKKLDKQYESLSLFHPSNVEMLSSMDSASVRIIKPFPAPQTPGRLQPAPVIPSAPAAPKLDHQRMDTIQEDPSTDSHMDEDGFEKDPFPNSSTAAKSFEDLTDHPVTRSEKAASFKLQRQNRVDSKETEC
human ADAMTS-5, sequence (Q9UNA0 262-930): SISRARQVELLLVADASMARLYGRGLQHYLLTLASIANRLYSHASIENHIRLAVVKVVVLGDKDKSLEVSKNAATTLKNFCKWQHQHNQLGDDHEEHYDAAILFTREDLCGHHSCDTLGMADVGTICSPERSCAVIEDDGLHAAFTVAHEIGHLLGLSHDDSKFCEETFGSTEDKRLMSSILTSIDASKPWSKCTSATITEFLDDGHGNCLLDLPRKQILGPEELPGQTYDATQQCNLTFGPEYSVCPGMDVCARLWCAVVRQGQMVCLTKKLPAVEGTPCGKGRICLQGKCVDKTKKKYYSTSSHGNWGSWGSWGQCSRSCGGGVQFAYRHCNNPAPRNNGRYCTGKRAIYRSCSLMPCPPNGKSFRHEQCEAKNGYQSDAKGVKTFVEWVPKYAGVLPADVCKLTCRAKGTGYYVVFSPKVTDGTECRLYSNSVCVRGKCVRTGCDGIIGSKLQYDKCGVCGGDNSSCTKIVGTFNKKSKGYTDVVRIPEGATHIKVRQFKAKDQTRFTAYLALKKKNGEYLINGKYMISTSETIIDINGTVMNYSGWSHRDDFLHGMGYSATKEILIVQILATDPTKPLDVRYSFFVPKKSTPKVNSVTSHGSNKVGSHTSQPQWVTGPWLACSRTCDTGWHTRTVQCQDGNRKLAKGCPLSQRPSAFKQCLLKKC
Procedure for human ADAMTS-5: Finally, the fluorescence is read on the Envision (Perkin Elmer) after an incubation of 90 min at 37° C.
Procedure for human MMP13: Human MMP13 is preactivated by incubated the enzyme in the same buffer complemented with 1 mM freshly prepared p-Aminophenylmercuric acetate (AMPA) for 1 hour at 37° C.

`O=C1NC(=O)C(CCC(=O)N2CCN(c3cccc(F)c3)CC2)(c2cccnc2)N1` (stereo not drawn) [compound 112, 5-[3-[4-(3-fluorophenyl)piperazin-1-yl]-3-oxo-propyl]-5-(3-pyridyl)imidazolidine-2,4-dione]: the values for the IC50 on human MMP13, on human TACE and at rnADAMTS-5 (1-564-6H) were 1880 nM, > 4000 nM and 39 nM, respectively.

Consider `C[C@H]1CN(C(=O)CCC2(C3CC3)NC(=O)NC2=O)CCN1c1cc(Cl)cc(Cl)c1` (stereo partly drawn) [compound 142, 5-cyclopropyl-5-[3-[(3S)-4-(3,5-dichlorophenyl)-3-methyl-piperazin-1-yl]-3-oxo-propyl]imidazolidine-2,4-dione], for which the half-maximal inhibitory concentration (IC50) at human MMP13 was > 20000 nM; at human TACE, > 4000 nM; at rnADAMTS-5 (1-564-6H), 54 nM.

`Cc1ccc(F)cc1N1CCN(C(=O)CCC2(C3CC3)NC(=O)NC2=O)C[C@@H]1C` (stereo partly drawn) [compound 148, 5-cyclopropyl-5-[3-[(3S)-4-(5-fluoro-2-methyl-phenyl)-3-methyl-piperazin-1-yl]-3-oxo-propyl]imidazolidine-2,4-dione]: the IC50 was > 20000 nM at human MMP13, > 4000 nM at human TACE and 97 nM on rnADAMTS-5 (1-564-6H).

For the compound `O=C1NC(=O)C(CCC(=O)N2CCN(c3cccc(F)c3)CC2)(C2CC2)N1` (stereo not drawn) [compound 115, 5-cyclopropyl-5-[3-[4-(3-fluorophenyl)piperazin-1-yl]-3-oxo-propyl]imidazolidine-2,4-dione], the figures for the IC50 at human MMP13, at human TACE and at rnADAMTS-5 (1-564-6H) were > 4000 nM, > 20000 nM and 38 nM, respectively.

As for `Cc1c(Cl)cccc1N1CCN(C(=O)CCC2(C3CC3)NC(=O)NC2=O)CC1` (stereo not drawn) [compound 98, 5-[3-[4-(3-chloro-2-methyl-phenyl)piperazin-1-yl]-3-oxo-propyl]-5-cyclopropyl-imidazolidine-2,4-dione], the IC50 on human MMP13 is > 20000 nM; on human TACE, > 4000 nM; on rnADAMTS-5 (1-564-6H) it was 82 nM.

In the case of `C[C@H]1CN(C(=O)CCC2(c3cccnc3)NC(=O)NC2=O)CCN1c1ccccc1` (stereo partly drawn) [compound 136, 5-[3-[(3S)-3-methyl-4-phenyl-piperazin-1-yl]-3-oxo-propyl]-5-(3-pyridyl)imidazolidine-2,4-dione], the IC50 on human MMP13 was > 20000 nM; at human TACE, > 20000 nM; on rnADAMTS-5 (1-564-6H), 242 nM.

In the case of `C[C@@H](C[C@@]1(C)NC(=O)NC1=O)C(=O)N1CCN(c2ccc(F)c(Cl)c2)[C@@H](C)C1` [Cpd 265], the IC50 was > 4000 nM at human TACE, 18 nM at human ADAMTS-5 and 22 nM on rnADAMTS-5 (1-564-6H).

On to `COC(CC1(C)NC(=O)NC1=O)C(=O)N1CCN(c2cccc(F)c2)[C@@H](C)C1` (stereo partly drawn) [compound 294, 5-[3-[(3S)-4-(3-fluorophenyl)-3-methyl-piperazin-1-yl]-2-methoxy-3-oxo-propyl]-5-methyl-imidazolidine-2,4-dione], for which the values for the IC50 at human TACE, at human ADAMTS-5 and at rnADAMTS-5 (1-564-6H) were > 20000 nM, 134 nM and 128 nM, respectively.

For `CC(CC1(C2CC2)NC(=O)NC1=O)C(=O)N1CCN(c2ccc(F)c(Cl)c2)[C@@H](C)C1` (stereo partly drawn) [compound 411, 5-(3-((S)-4-(3-chloro-4-fluorophenyl)-3-methylpiperazin-1-yl)-2-methyl-3-oxopropyl)-5-cyclopropylimidazolidine-2,4-dione], the figures for the IC50 at human MMP13, at human TACE and at human ADAMTS-5 were 865 nM, > 4000 nM and 11 nM, respectively.

For `COCC1(CC(C)C(=O)N2CCN(c3cccc(Cl)c3C)CC2)NC(=O)NC1=O` (stereo not drawn) [compound 433, 5-(3-(4-(3-chloro-2-methylphenyl)piperazin-1-yl)-2-methyl-3-oxopropyl)-5-(methoxymethyl)imidazolidine-2,4-dione], the IC50 on human MMP13 is > 20000 nM; at human TACE, 1250 nM; on human ADAMTS-5 it was 21 nM.

For `CC(CC1(C)NC(=O)NC1=O)C(=O)N1CCN(c2cc(F)cc(Cl)c2)[C@@H](C)C1` (stereo partly drawn) [compound 418, 5-(3-((S)-4-(3-chloro-5-fluorophenyl)-3-methylpiperazin-1-yl)-2-methyl-3-oxopropyl)-5-methylimidazolidine-2,4-dione], the IC50 on human MMP13 is > 4000 nM; on human TACE, > 4000 nM; on human ADAMTS-5, 33 nM.

For `CC1(CC(CO)C(=O)N2CCN(c3cc(Cl)cc(Cl)c3)CC2)NC(=O)NC1=O` (stereo not drawn) [compound 220, 5-[3-[4-(3,5-dichlorophenyl)piperazin-1-yl]-2-(hydroxymethyl)-3-oxo-propyl]-5-methyl-imidazolidine-2,4-dione], the IC50 is > 4000 nM at human MMP13, 245 nM on human TACE and 18 nM on human ADAMTS-5.

As for `CC(CC1(C2CC2)NC(=O)NC1=O)C(=O)N1CCN(c2cc(Cl)cc(Cl)c2)CC1` (stereo not drawn) [compound 409, 5-cyclopropyl-5-(3-(4-(3,5-dichlorophenyl)piperazin-1-yl)-2-methyl-3-oxopropyl)imidazolidine-2,4-dione], the IC50 on human MMP13 was determined as 2740 nM; on human TACE, 311 nM; at human ADAMTS-5 it was 17 nM.

For the compound `Cc1c(Cl)cc(Cl)cc1N1CCN(C(=O)CCC2(C)NC(=O)NC2=O)C[C@@H]1C` (stereo partly drawn) [compound 178, 5-[3-[(3S)-4-(3,5-dichloro-2-methyl-phenyl)-3-methyl-piperazin-1-yl]-3-oxo-propyl]-5-methyl-imidazolidine-2,4-dione], the IC50 at human ADAMTS-5 worked out at 577 nM; on rnADAMTS-5 (1-564-6H), 344 nM.

Turning to `N#Cc1cccc(N2CCN(C(=O)CCC3(C4CC4)NC(=O)NC3=O)CC2)c1` (stereo not drawn) [compound 195, 3-[4-[3-(4-cyclopropyl-2,5-dioxo-imidazolidin-4-yl)propanoyl]piperazin-1-yl]benzonitrile], the results for the IC50 on human ADAMTS-5 and at rnADAMTS-5 (1-564-6H) were 318 nM and 262 nM, respectively.

Regarding `O=C1NC(=O)C(CCC(=O)N2CCN(c3cccc(Cl)c3)CC2)(CNCc2ccccc2)N1` (stereo not drawn) [compound 184, 5-[(benzylamino)methyl]-5-[3-[4-(3-chlorophenyl)piperazin-1-yl]-3-oxo-propyl]imidazolidine-2,4-dione], the IC50 came out at 272 nM on human ADAMTS-5 and 280 nM at rnADAMTS-5 (1-564-6H).

In the case of `NCC1(CCC(=O)N2CCN(c3cccc(Cl)c3)CC2)NC(=O)NC1=O` (stereo not drawn) [compound 171, 5-(aminomethyl)-5-[3-[4-(3-chlorophenyl)piperazin-1-yl]-3-oxo-propyl]imidazolidine-2,4-dione], the IC50 at human MMP13 is > 4000 nM; on human TACE, > 20000 nM; on human ADAMTS-5, 305 nM.

`CC(CC1(c2ccccn2)NC(=O)NC1=O)C(=O)N1CCN(c2cc(Cl)cc(Cl)c2)CC1` (stereo not drawn) [compound 231, 5-[3-[4-(3,5-dichlorophenyl)piperazin-1-yl]-2-methyl-3-oxo-propyl]-5-(2-pyridyl)imidazolidine-2,4-dione]: the IC50 at human MMP13 turned out to be 766 nM; at human TACE, 106 nM; at human ADAMTS-5, 20 nM.

As for `C[C@H]1CN(C(=O)CC[C@@]2(C)NC(=O)NC2=O)CCN1c1ccc(Cl)c(Cl)c1` [compound 414, (R)-5-(3-((S)-4-(3,4-dichlorophenyl)-3-methylpiperazin-1-yl)-3-oxopropyl)-5-methylimidazolidine-2,4-dione], the IC50 at human MMP13 is > 4000 nM; on human TACE, > 4000 nM; on human ADAMTS-5, 40 nM.

For the compound `O=C1NC(=O)C(CC(O)C(=O)N2CCN(c3cc(Cl)cc(Cl)c3)CC2)(C2CC2)N1` (stereo not drawn) [compound 201, 5-cyclopropyl-5-[3-[4-(3,5-dichlorophenyl)piperazin-1-yl]-2-hydroxy-3-oxo-propyl]imidazolidine-2,4-dione], the values for the IC50 on human MMP13, on human TACE and at human ADAMTS-5 were > 20000 nM, > 20000 nM and 307 nM, respectively.

Consider `CC(CC1(C)NC(=O)NC1=O)C(=O)N1CCN(c2ccc(F)c(Cl)c2)[C@@H](C)C1` (stereo partly drawn) [compound 422, 5-(3-((S)-4-(3-chloro-4-fluorophenyl)-3-methylpiperazin-1-yl)-2-methyl-3-oxopropyl)-5-methylimidazolidine-2,4-dione], for which the IC50 at human MMP13 is 2330 nM; at human TACE it was > 4000 nM; at human ADAMTS-5, 21 nM.

As for `CC(CC1(C)NC(=O)NC1=O)C(=O)N1CCN(c2cc(Cl)cc(Cl)c2)[C@@H](C)C1` (stereo partly drawn) [compound 420, 5-(3-((S)-4-(3,5-dichlorophenyl)-3-methylpiperazin-1-yl)-2-methyl-3-oxopropyl)-5-methylimidazolidine-2,4-dione], the results for the IC50 on human MMP13, at human TACE and on human ADAMTS-5 were > 14000 nM, 2980 nM and 32 nM, respectively.

As to `COCC1(CC(C)C(=O)N2CCN(c3cc(Cl)cc(Cl)c3)[C@@H](C)C2)NC(=O)NC1=O` (stereo partly drawn) [compound 429, 5-(3-((S)-4-(3,5-dichlorophenyl)-3-methylpiperazin-1-yl)-2-methyl-3-oxopropyl)-5-(methoxymethyl)imidazolidine-2,4-dione], the figures for the IC50 on human MMP13, on human TACE and on human ADAMTS-5 were > 20000 nM, > 3980 nM and 53 nM, respectively.

Take `COCC1(CC(C)C(=O)N2CCN(c3cc(Cl)cc(Cl)c3)CC2)NC(=O)NC1=O` (stereo not drawn) [compound 222, 5-[3-[4-(3,5-dichlorophenyl)piperazin-1-yl]-2-methyl-3-oxo-propyl]-5-(methoxymethyl)imidazolidine-2,4-dione]: the IC50 at human MMP13 is > 4000 nM; on human TACE, 337 nM; at human ADAMTS-5 it was 20 nM.

For the compound `C[C@H]1CN(C(=O)CCC2(C)NC(=O)NC2=O)CCN1c1ccc(F)c(Cl)c1` (stereo partly drawn) [compound 166, 5-[3-[(3S)-4-(3-chloro-4-fluoro-phenyl)-3-methyl-piperazin-1-yl]-3-oxo-propyl]-5-methyl-imidazolidine-2,4-dione], the IC50 is > 20000 nM on human MMP13, > 20000 nM at human TACE and 264 nM at human ADAMTS-5.

In the case of `CC(CC1(c2ccccn2)NC(=O)NC1=O)C(=O)N1CCN(c2cc(Cl)cc(Cl)c2)CC1` (stereo not drawn) [compound 434, 5-(3-(4-(3,5-dichlorophenyl)piperazin-1-yl)-2-methyl-3-oxopropyl)-5-(pyridin-2-yl)imidazolidine-2,4-dione], the IC50 was found to be 766 nM at human MMP13, 106 nM at human TACE and 20 nM on human ADAMTS-5.

(Values after patent publication US9926281B2 (priority 2014, dated 2018).)
